In ChEMBL document CHEMBL3882727, “Imidazopyridine Kinase Inhibitors” (2008):

Key:
[1] = target: T1, Insulin-like growth factor 1 receptor (Homo sapiens, UniProt P08069); assay: Inhibition of human GST-rTEV-tagged IGF1R (957 to 1367 residues) expressed in baculovirus infected insect Sf9 cells assessed as decrease in biotin-aminohexyl-AEEEEYMMMMAKKKK-NH2 phosphorylation after 1 hr by fluorometer
Insulin receptor [2] = target: T2, Insulin receptor (Homo sapiens, UniProt P06213); assay: Inhibition of human GST-rTEV-tagged insulin receptor (979 to 1382 residues) expressed in baculovirus infected insect Sf9 cells assessed as decrease in biotin-aminohexyl-AEEEEYMMMMAKKKK-NH2 phosphorylation after 1 hr by fluorometer
Insulin receptor [3] = target: T2, Insulin receptor; assay: Inhibition of insulin-induced human insulin receptor autophosphorylation expressed in mouse NIH-3T3 cells preincubated for 2 hrs followed by insulin induction measured after 15 mins by DELFIA; format: cell-based, NIH3T3
[4] = target: T1, Insulin-like growth factor 1 receptor; assay: Inhibition of IGF1-induced human IGF1R autophosphorylation expressed in mouse NIH-3T3 cells preincubated for 2 hrs followed by IGF-1 induction measured after 15 mins by DELFIA; format: cell-based, NIH3T3
[5] = Toxicity in nude mouse allografted with mouse LISN cells assessed as body weight loss at 50 to 100 mg/kg, qd for 21 days measured during compound dosing; format: organism-based; conditions: 504 h
[6] = Toxicity in nude mouse allografted with mouse LISN cells assessed as body weight loss at 30 mg/kg, qd for 21 days measured during compound dosing relative to control; format: organism-based; conditions: in vivo, 504 h
[7] = Toxicity in nude mouse allografted with mouse LISN cells assessed as body weight loss at 60 mg/kg, qd for 21 days measured during compound dosing relative to control; format: organism-based; conditions: in vivo, 504 h
[8] = Cytotoxicity against human 5637 cells after 3 days by InCell analyser assay; format: functional, cell-based; conditions: Homo sapiens, 5637, 72 h
[9] = Cytotoxicity against human BC2 cells after 3 days by InCell analyser assay; format: functional, cell-based; conditions: BC-2, 72 h
[10] = Cytotoxicity against human KLE cells after 3 days by InCell analyser assay; format: functional, cell-based; conditions: 72 h
[11] = Cytotoxicity against human H4 cells after 3 days by InCell analyser assay; format: functional, cell-based; conditions: H4, 72 h
[12] = Cytotoxicity against human JAR cells after 3 days by InCell analyser assay; format: functional, cell-based; conditions: 72 h
[13] = Cytotoxicity against human ES2 cells after 3 days by InCell analyser assay; format: functional, cell-based; conditions: ES-2, 72 h
[14] = Cytotoxicity against human SR cells after 3 days by InCell analyser assay; format: functional, cell-based; conditions: 72 h
[15] = Cytotoxicity against human NALM1 cells after 3 days by InCell analyser assay; format: functional, cell-based; conditions: NALM1, 72 h
[16] = Cytotoxicity against human HT3 cells after 3 days by InCell analyser assay; format: functional, cell-based; conditions: HT-3, 72 h
[17] = Cytotoxicity against human CESS cells after 3 days by InCell analyser assay; format: functional, cell-based; conditions: 72 h
[18] = Cytotoxicity against human SH4 cells after 3 days by InCell analyser assay; format: functional, cell-based; conditions: SH-4, 72 h
[19] = Cytotoxicity against human C-4I cells after 3 days by InCell analyser assay; format: functional, cell-based; conditions: 72 h
[20] = Cytotoxicity against human MX1 cells after 3 days by InCell analyser assay; format: functional, cell-based; conditions: MX1, 72 h
[21] = Cytotoxicity against human HN5 cells after 3 days by InCell analyser assay; format: functional, cell-based; conditions: HN5, 72 h
[22] = Cytotoxicity against human GCT cells after 3 days by InCell analyser assay; format: functional, cell-based; conditions: 72 h
[23] = Cytotoxicity against human MT3 cells after 3 days by InCell analyser assay; format: functional, cell-based; conditions: MT-3, 72 h
[24] = Cytotoxicity against human U266B1 cells after 3 days by InCell analyser assay; format: functional, cell-based; conditions: U-266, 72 h
[25] = Cytotoxicity against human SCLC3 cells after 3 days by InCell analyser assay; format: functional, cell-based; conditions: SCLC3, 72 h
[26] = Cytotoxicity against human RL cells after 3 days by InCell analyser assay; format: functional, cell-based; conditions: 72 h
[27] = Cytotoxicity against human EM2 cells after 3 days by InCell analyser assay; format: functional, cell-based; conditions: EM-2, 72 h
[28] = Cytotoxicity against human BC3 cells after 3 days by InCell analyser assay; format: functional, cell-based; conditions: BC-3, 72 h
[29] = Cytotoxicity against human T24 cells after 3 days by InCell analyser assay; format: functional, cell-based; conditions: T-24, 72 h
[30] = Cytotoxicity against human Y79 cells after 3 days by InCell analyser assay; format: functional, cell-based; conditions: Y79, 72 h
[31] = Cytotoxicity against human J82 cells after 3 days by InCell analyser assay; format: functional, cell-based; conditions: J82, 72 h
[32] = Cytotoxicity against human DB cells after 3 days by InCell analyser assay; format: functional, cell-based; conditions: 72 h
[33] = Cytotoxicity against human C3A cells after 3 days by InCell analyser assay; format: functional, cell-based; conditions: 72 h
[34] = Cytotoxicity against human AGS cells after 3 days by InCell analyser assay; format: functional, cell-based; conditions: 72 h
[35] = Cytotoxicity against human MC/CAR cells after 3 days by InCell analyser assay; format: functional, cell-based; conditions: 72 h
[36] = Cytotoxicity against human DK-MG cells after 3 days by InCell analyser assay; format: functional, cell-based; conditions: 72 h
[37] = Cytotoxicity against HOS cells after 3 days by InCell analyser assay; format: functional, cell-based; conditions: Homo sapiens, 72 h
[38] = Cytotoxicity against human ML2 cells after 3 days by InCell analyser assay; format: functional, cell-based; conditions: ML-2, 72 h
[39] = Cytotoxicity against human BC1 cells after 3 days by InCell analyser assay; format: functional, cell-based; conditions: BC1, 72 h
[40] = Cytotoxicity against human A7 cells after 3 days by InCell analyser assay; format: functional, cell-based; conditions: 72 h
[41] = Cytotoxicity against human MJ cells after 3 days by InCell analyser assay; format: functional, cell-based; conditions: 72 h
[42] = Cytotoxicity against human RD cells after 3 days by InCell analyser assay; format: functional, cell-based; conditions: 72 h
[43] = Cytotoxicity against human M14 cells after 3 days by InCell analyser assay; format: functional, cell-based; conditions: M14, 72 h
[44] = Toxicity in nude mouse allografted with mouse LISN cells assessed as body weight loss at 30 to 300 mg/kg, qd for 21 days measured during compound dosing; format: organism-based; conditions: 504 h

T2 sequence (P06213 28-758 limits assumed): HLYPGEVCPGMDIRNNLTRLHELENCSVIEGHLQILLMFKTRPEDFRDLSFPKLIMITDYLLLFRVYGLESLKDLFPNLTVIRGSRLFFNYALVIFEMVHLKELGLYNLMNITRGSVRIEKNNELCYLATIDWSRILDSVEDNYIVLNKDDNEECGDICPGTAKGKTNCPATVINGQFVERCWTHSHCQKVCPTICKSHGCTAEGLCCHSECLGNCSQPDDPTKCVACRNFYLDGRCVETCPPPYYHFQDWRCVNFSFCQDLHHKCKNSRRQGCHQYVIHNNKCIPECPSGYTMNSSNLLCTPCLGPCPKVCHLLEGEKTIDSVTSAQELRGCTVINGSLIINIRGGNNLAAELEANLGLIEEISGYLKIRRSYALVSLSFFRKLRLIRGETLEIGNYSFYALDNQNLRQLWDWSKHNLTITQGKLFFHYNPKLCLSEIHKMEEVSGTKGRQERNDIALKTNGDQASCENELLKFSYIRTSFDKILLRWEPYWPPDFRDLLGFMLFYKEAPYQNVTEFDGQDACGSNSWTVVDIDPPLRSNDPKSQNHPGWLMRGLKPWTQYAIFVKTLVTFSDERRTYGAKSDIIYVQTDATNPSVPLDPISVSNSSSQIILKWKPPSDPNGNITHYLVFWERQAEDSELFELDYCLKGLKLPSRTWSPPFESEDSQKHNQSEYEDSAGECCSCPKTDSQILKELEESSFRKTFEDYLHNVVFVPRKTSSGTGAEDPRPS
T2 sequence (P06213 763-1382 limits assumed): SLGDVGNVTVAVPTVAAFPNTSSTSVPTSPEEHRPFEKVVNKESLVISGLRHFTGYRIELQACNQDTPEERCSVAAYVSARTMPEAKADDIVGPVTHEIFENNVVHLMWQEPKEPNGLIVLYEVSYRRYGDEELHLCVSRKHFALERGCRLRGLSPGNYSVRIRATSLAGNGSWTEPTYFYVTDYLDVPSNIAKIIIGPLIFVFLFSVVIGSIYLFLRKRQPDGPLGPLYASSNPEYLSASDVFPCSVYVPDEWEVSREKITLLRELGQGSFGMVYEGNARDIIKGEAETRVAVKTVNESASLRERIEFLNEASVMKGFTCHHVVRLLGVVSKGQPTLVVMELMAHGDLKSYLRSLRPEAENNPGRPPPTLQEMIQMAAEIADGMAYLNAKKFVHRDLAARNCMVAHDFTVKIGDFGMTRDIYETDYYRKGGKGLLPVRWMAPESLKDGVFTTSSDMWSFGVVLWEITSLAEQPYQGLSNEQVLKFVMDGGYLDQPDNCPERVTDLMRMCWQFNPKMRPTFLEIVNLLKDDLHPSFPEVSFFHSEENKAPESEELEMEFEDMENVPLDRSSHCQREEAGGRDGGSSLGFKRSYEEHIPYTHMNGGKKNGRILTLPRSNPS

Compound `COc1cc(C2CCN(CCS(C)(=O)=O)CC2)ccc1Nc1nccc(-c2c(-c3ccc(OC)c(C(=O)Nc4c(F)cccc4F)c3)nc3ccccn23)n1` has an IC50 [1] of less than 100 nM and an IC50 (Insulin receptor [2]) of less than 100 nM.

For `CCOc1cc(N2CCN(CCS(C)(=O)=O)CC2)c(C)cc1Nc1nccc(-c2c(-c3ccc(OC)c(C(=O)Nc4c(F)cccc4F)c3)nc3ccccn23)n1`, the IC50 [1] was less than 100 nM, the IC50 (Insulin receptor [3]) was less than 100 nM and the IC50 (Insulin receptor [2]) was less than 100 nM.

`CCOc1cc(C2CCN(CCS(C)(=O)=O)CC2)ccc1Nc1nccc(-c2c(-c3ccc(OC(C)C)c(C(=O)Nc4c(F)cccc4F)c3)nc3ccccn23)n1` showed an IC50 [1] of 100 to 1000 nM, an IC50 [4] of less than 100 nM and an IC50 (Insulin receptor [2]) of 100 to 1000 nM.

In the case of `COc1cc(N2CCC(CCS(C)(=O)=O)CC2)c(C)cc1Nc1nccc(-c2c(-c3ccc(OC)c(C(=O)Nc4c(F)cccc4F)c3)nc3cc(F)ccn23)n1`, the IC50 [1] is reported as less than 100 nM, the IC50 (Insulin receptor [3]) is reported as less than 100 nM and the IC50 (Insulin receptor [2]) is reported as less than 100 nM.

Compound `CN(C)CCOc1cccc(Nc2nccc(-c3c(-c4cccc(C(=O)Nc5c(F)cc(F)cc5F)c4)nc4ccccn34)n2)c1` has an IC50 (Insulin receptor [2]) of less than 100 nM.

With `CCOc1cc(N2CCC(CCS(C)(=O)=O)CC2)c(C)cc1Nc1nccc(-c2c(-c3ccc(OC)c(C(=O)Nc4c(F)cccc4F)c3)nc3ccccn23)n1` the Activity [5] was “Non-Toxic”.

In the case of `CCOc1cc(N2CCC(N3CCN(S(C)(=O)=O)CC3)CC2)c(CC)cc1Nc1nccc(-c2c(-c3ccc(OCC)c(C(=O)Nc4c(F)cccc4F)c3)nc3ccccn23)n1`, the IC50 [1] is reported as 100 to 1000 nM, the IC50 [4] is reported as less than 100 nM and the IC50 (Insulin receptor [2]) is reported as 100 to 1000 nM.

With `CCc1cc(Nc2nccc(-c3c(-c4ccc(OC)c(C(=O)Nc5c(F)cccc5F)c4)nc4ccccn34)n2)c(OC)cc1N1CCC(N2CCN(S(C)(=O)=O)CC2)CC1` the Activity [6] was “Non-Toxic” and the Activity [7] was “Non-Toxic”.

Work on `COc1cc(N2CCC(N3CCCCC3)CC2)ccc1Nc1nccc(-c2c(-c3cccc(C(=O)Nc4c(F)cccc4F)c3)nc3ccccn23)n1` yielded an IC50 [8] greater than 5000 nM, an IC50 [9] of 1000 to 5000 nM and an IC50 [10] of 1000 to 5000 nM. For the same compound, the IC50 [11] was greater than 5000 nM, the IC50 [12] was 1000 to 5000 nM and the IC50 [13] was 1000 to 5000 nM. The IC50 [14] was 1000 to 5000 nM, the IC50 [15] was 1000 to 5000 nM and the IC50 [16] was greater than 5000 nM. The IC50 [17] was greater than 5000 nM, the IC50 [18] was 1000 to 5000 nM and the IC50 [19] was 1000 to 5000 nM. It also gave an IC50 [20] of 1000 to 5000 nM, an IC50 [21] of 1000 to 5000 nM and an IC50 [22] of 1000 to 5000 nM. The IC50 [23] was less than 1000 nM, the IC50 [24] was 1000 to 5000 nM and the IC50 [25] was 1000 to 5000 nM. It also gave an IC50 [26] of 1000 to 5000 nM, an IC50 [27] greater than 5000 nM and an IC50 [28] of 1000 to 5000 nM. The IC50 [29] was greater than 5000 nM, the IC50 [30] was greater than 5000 nM and the IC50 [31] was 1000 to 5000 nM. The IC50 [32] was 1000 to 5000 nM, the IC50 [33] was 1000 to 5000 nM and the IC50 [34] was 1000 to 5000 nM. The IC50 [35] was 1000 to 5000 nM, the IC50 [36] was 1000 to 5000 nM and the IC50 [37] was less than 1000 nM. For the same compound, the IC50 [38] was greater than 5000 nM, the IC50 [39] was 1000 to 5000 nM and the IC50 [40] was 1000 to 5000 nM. For the same compound, the IC50 [41] was 1000 to 5000 nM, the IC50 [42] was greater than 5000 nM and the IC50 [43] was 1000 to 5000 nM.

For `COc1cc(N2CCC(N3CCN(S(C)(=O)=O)CC3)CC2)ccc1Nc1nccc(-c2c(-c3cccc(C(=O)Nc4c(F)cccc4F)c3)nc3ccccn23)n1`, the Activity [44] was “Non-Toxic”.
